Assay results as given in US20180338955A1, “METHODS FOR REGULATION AND TREATMENT OF GLIOMA CELL MIGRATION AND GLIOBLASTOMA” (priority 2015, published 2018).
Entries after “also recorded” stand apart in the source; their conditions may differ. Blank lines part the entries; values can stand above or below the compound they belong to.

Assays:
phospho(Y394)-Lck = target: T1, phospho(Y394)-Lck (Homo sapiens, UniProt P06239); assay: Western blot of hGSC lysates for phospho(Y394)-Lck; type: cell-based; conditions: hGSCs (GSC1, GSC2) on fibronectin, 500 nM, 2 hours
T1 construct: hGSCs isolated from two patients with glioblastomas (GSC1 and GSC2) left untreated or treated with 500 nM Lck-I for 2 hours; endogenous in cells; host or cells: primary human glioma stem cells (GSC1, GSC2) from two glioblastoma patients
Experimental: For total cell lysates, cultures were lysed in 1×SDS lysis buffer supplemented with protease and phosphatase inhibitors (Sigma). Lysates were sonicated and cleared by centrifugation. […] A custom phospho-specific polyclonal antibody was generated against p([MUT])-Lck and affinity-purified against total Lck, Fyn and Lyn (Thermo Fisher). Secondary antibodies used were HRP-conjugate goat anti-mouse and goat anti-rabbit (Cell Signaling). Semi-quantitative analysis was conducted with FluorChem SP analytical software. Statistical significance was determined by the two-tailed Student's t-test.

phospho(Y118)-paxillin [1] = assay: Western blot of hGSC lysates for phospho(Y118)-paxillin; type: cell-based, human; conditions: hGSCs (GSC1, GSC2) on fibronectin, 500 nM, 2 hours
Source text: (§1) For total cell lysates, cultures were lysed in 1×SDS lysis buffer supplemented with protease and phosphatase inhibitors (Sigma). Lysates were sonicated and cleared by centrifugation. Samples were separated on 4-12% Bis-Tris SDS-PAGE gels (NuPAGE), transferred on to nitrocellulose and immunoblotted using the following primary antibodies: p(Y418)-Src family, Lck (D88), […], pCrkII (Cell Signaling), mortalin (a kind gift of Dr. Alice Cavanaugh), and β-actin (Sigma). A custom phospho-specific polyclonal antibody was generated against p(Y394)-Lck and affinity-purified against total Lck, Fyn and Lyn (Thermo Fisher). Secondary antibodies used were HRP-conjugate goat anti-mouse and goat anti-rabbit (Cell Signaling). Semi-quantitative analysis was conducted with FluorChem SP analytical software. Statistical significance was determined by the two-tailed Student's t-test.

phospho(Y221)-CrkII = assay: Western blot of hGSC lysates for phospho(Y221)-CrkII; type: cell-based, human; conditions: hGSCs (GSC1, GSC2) on fibronectin, 500 nM, 2 hours
Source text: as §1

Fyn [2] = target: T2, Fyn (Homo sapiens, UniProt P06241); assay: Immunoprecipitation/Western blot, phosphorylation state of Fyn; type: cell-based; conditions: human glioma cells, 500 nm
Experimental: (§2) For immunoprecipitation studies, U87 MG cells treated with A77 or DMSO vehicle were lysed in 1×RIPA buffer containing protease and phosphatase inhibitors (Sigma). Lysates were cleared via centrifugation and were pre-cleared with TrueBlot anti-rabbit IgG beads (eBiosience) to remove non-specific binding. Primary antibodies against Lck, Src, Fyn, Lyn or Yes (Cell Signaling) were added and the lysates were incubated overnight at 4° C. with gentle rotation. The following day, TrueBlot anti-rabbit IgG (eBioscience) beads were added to the lysate and incubated at 4° C. for 2 hours. Immunoprecipitates were washed, solubilized in 2×Laemmli buffer and boiled for 5 minutes. The supernatants were separated on an 8% Bis-Tris SDS-PAGE gel, transferred to nitrocellulose and immunoblotted.
Target sequence in this assay (P06241 whole entry): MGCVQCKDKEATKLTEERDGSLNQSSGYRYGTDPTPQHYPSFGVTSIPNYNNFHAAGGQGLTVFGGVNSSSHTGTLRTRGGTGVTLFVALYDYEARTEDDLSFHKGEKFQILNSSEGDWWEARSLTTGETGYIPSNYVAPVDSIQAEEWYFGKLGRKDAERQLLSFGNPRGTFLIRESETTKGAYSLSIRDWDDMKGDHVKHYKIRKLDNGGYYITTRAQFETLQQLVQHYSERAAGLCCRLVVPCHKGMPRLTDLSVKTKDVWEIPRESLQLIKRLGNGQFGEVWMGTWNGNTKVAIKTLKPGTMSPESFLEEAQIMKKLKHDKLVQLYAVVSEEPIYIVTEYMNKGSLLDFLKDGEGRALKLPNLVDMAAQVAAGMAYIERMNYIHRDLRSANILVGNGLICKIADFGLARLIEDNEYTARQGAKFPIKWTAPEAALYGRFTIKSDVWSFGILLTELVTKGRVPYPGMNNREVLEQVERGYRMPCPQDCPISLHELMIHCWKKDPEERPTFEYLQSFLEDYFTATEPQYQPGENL

Lyn [3] = target: T3, Lyn (Homo sapiens, UniProt P07948); assay: Immunoprecipitation/Western blot, phosphorylation state of Lyn; type: cell-based; conditions: human glioma cells, 500 nm
Experimental: as §2
Target sequence in this assay (P07948 whole entry): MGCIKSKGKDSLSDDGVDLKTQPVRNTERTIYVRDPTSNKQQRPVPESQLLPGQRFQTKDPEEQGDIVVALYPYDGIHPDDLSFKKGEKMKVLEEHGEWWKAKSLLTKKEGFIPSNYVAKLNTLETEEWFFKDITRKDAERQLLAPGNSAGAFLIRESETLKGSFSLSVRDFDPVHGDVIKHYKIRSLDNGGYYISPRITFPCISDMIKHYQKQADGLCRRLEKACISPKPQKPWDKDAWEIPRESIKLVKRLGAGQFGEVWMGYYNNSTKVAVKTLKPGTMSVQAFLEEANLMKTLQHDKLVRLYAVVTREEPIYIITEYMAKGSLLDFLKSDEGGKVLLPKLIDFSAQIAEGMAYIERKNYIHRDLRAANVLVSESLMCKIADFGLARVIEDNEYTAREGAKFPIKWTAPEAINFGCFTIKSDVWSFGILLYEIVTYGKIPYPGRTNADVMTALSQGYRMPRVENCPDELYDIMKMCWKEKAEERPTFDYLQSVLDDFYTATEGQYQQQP

phospho(Y118)-paxillin [4] = assay: Immunocytochemistry of phospho(Y118)-paxillin in human GSCs; type: cell-based; conditions: 500 nM, 2 hours, versus control
Experimental: (§3) To assess pseudopodia formation, GBM stem cells were seeded on fibronectin coated (10 ug/ml, Sigma) glass chamber slides (NUNC) in the presence of serum for 2.5 hours. Cultures were treated with 500 nM of Lck inhibitor or DMSO vehicle for 2 hours and then fixed in 4% formaldehyde. Samples were permeabilized and blocked with 5% normal goat serum containing 0.3% Triton X-100 in 1×PBS (Sigma) at RT for 1 hour. The samples were stained overnight at 4° C. with Phospho-Paxillin (CellSignaling). The following day, secondary antibodies were applied at manufacturer recommended dilutions for 1 hour at RT (Jackson ImmunoResearch). Samples were subsequently stained with Rhodamine RedX Phalloidin (Life Technologies) and Hoescht 33342 (Life Technologies) following manufacturer's protocols. Slides were mounted with Aqua Poly/Mount (Polysciences) and imaged using a Zeiss confocal microscope. Adobe Photoshop was used to count the total number of pseudopodia, which included both axial and radial projections, per cell for each group. Differences between groups were confirmed using Student's t-test.

human GSCs [5] = assay: Pseudopodia (lamellipodia) formation of human GSCs on fibronectin; type: cell-based; conditions: fibronectin substrate, 500 nM, 2 hours, versus untreated/DMSO
Experimental: as §3

human GSCs [6] = assay: Migration of human GSCs along parallel DRG axonal bundles (coverslips with parallel scratches); type: cell-based; conditions: human GSC-DRG axon co-cultures, versus DMSO control
Experimental: As inhibition of Lck signalling has a dramatic effect on pseudopodia extension and retraction, Applicants investigated whether Lck may also function to regulate the migration and invasion of human GSCs. […] To assess the effect of Lck signaling on the migration and interaction of hGSCs with DRG axons, Applicants seeded hGSCs on DRG axons and treated the cultures with Lck-I or PBS/DMSO for 72 hours. […] To quantify the effect of Lck inhibition on GSC migration, Applicants added GSCs on DRG axons with and without Lck-I and quantified the surface area covered by the migrating glioma cells using Image-J.

human GSCs [7] = assay: Migration of human GSCs on purified DRG axon cultures; type: cell-based; conditions: purified DRG axons, 72 hours
Experimental: To assess the effect of the Lck inhibitor on migrating glioma cells, GBM spheres were seeded on rat DRG cultures in Supplemented NB-A Medium containing 10% FBS. Spheres were allowed to attach for one hour. Cultures were treated with 500 nM of Lck inhibitor or DMSO vehicle for 72 hours. Samples were fixed in 4% formaldehyde for 10 minutes, permeabilized and blocked with 5% normal goat serum containing 0.3% Triton X-100 in 1×PBS (Sigma) at RT for 1 hour. The samples were stained overnight at 4° C. with Ki67 (Cell Signaling), GFAP (DAKO) and NF (EnCor Biotechnology). Area of glioma stem cell migration for each sample was calculated by normalizing the total area of migration to the interior area of the non-migrating sphere mass. Differences between groups were then confirmed using Student's test.

human GSCs [8] = assay: xCELLigence impedance assay of cell spreading/migration; type: cell-based; conditions: 500 nM, versus DMSO
Experimental: The xCELLigence system was used to perform cell migration assays on the RTCA DP instrument. Electrical impedance due to cell migration is represented as cell index. GBM cells were seeded on fibronectin coated wells of the RTCA CIM-plate 16 (ACEA Biosciences) and allowed to attach and spread for 1 hour at room temperature. After 1 hour, wells were treated with DMSO vehicle or 500 nM Lck inhibitor. As cells migrated towards the lower chamber containing 10% FBS with DMSO vehicle or 500 nM Lck inhbitor, measurements were captured every 5 minutes. Cell index data was plotted overtime and the slope between 2 and 6 hours was calculated.

human GSCs [9] = assay: Invasion in Alvetex scaffold; type: cell-based; conditions: 500 nM, 72 hours, versus untreated
Experimental: Alvetex scaffolds were coated with fibronectin (10 μg/ml) for 2 hours at 37° C. 750,000 GBM cells were plated in the center of each scaffold and allowed to attach for one hour. Cultures were grown in Supplemented NB-A Medium containing 10% FBS. Cultures were treated with 500 nM of Lck inhibitor or DMSO vehicle for 72 hours. Samples were fixed in 4% formaldehyde for 10 minutes, permeabilized with 0.1% Triton X-100 and blocked with 1% BSA-PBS for 30 minutes at room temperature. Samples were subsequently stained with Rhodamine RedX Phalloidin (Life Technologies) and Hoescht 33342 (Life Technologies) following manufacturer's protocols. Slides were mounted with Aqua Poly/Mount (Polysciences) and imaged using a Zeiss confocal microscope.

[10] = system: human glioblastoma (hGSCs); assay: Orthotopic xenograft mouse model of human glioblastoma; type: in vivo, Nu/J mice
Experimental: To determine the effect of inhibition of Lck signaling in human glioma formation in vivo, Applicants used an orthotopic xenograft mouse model of human glioblastoma (Singh et al., 2004; Valadez et al., 2014). Applicants injected under stereotactic guidance 200,000 hGSCs at coordinates −2.0 mm AP and +1.5 mm ML relative to Bregma. The Lck-I or the PBS/DMSO were administered through an Alzet pump in the lateral ventricle continuously for 4 weeks. Brains were formalin fixed and stained for human Ki67 4 weeks after the implantation.
Intracranial injections were performed using a stereotaxic apparatus (Kopf) on 8-week-old Nu/J mice initially sedated with 4% isoflurane and maintained with 2% isoflurane. After leveling the skull, a hole was drilled with a #72 micro drill bit (Kyocera) at coordinates −2.0 mm AP and +1.5 mm ML relative to Bregma. A 75 RN Hamilton syringe was then lowered to a depth of −2.5 mm DV at a rate of 0.5 mm per minute, and 200,000 primary GSCs from donor 2 resuspended in a total volume of 4 μl were injected at a rate of 0.5 μl per minute using a Stoelting Quintessiential Stereotaxic Injector. In order to reduce backflow, the syringe was allowed to rest for 2 minutes post-injection before it was withdrawn at a rate of 0.5 mm per minute, and the cavity was immediately sealed with bone wax (Ethicon). A subcutaneous pocket was formed, and an Alzet osmotic pump 1004 fitted with brain infusion kit 3 and containing either 1.175 mg of A77 (Axon Medchem) or DMSO/Kolliphor ELP vehicle was inserted near the left hind limb of the animal. A second hole was drilled at coordinates of +0.5 mm and +1.1 mm ML relative to Bregma with the same micro drill bit to allow placement of the brain infusion catheter in the right lateral ventricle. The brain infusion catheter was lowered into the brain and glued to the skull using Loctite 454 cyanoacrylate adhesive. The incision was sealed using veterinary tissue glue and a dab of antibiotic ointment was placed over the head and neck. Animals were monitored daily for weight loss, pain and distress. After four weeks, animals were euthanized with pentobarbital and perfused with 4% formaldehyde. Brains were harvested, post-fixed in 4% formaldehyde, and processed for paraffin embedding. Paraffin embedded tissue was sliced on a microtome to […] sections and placed on microscope slides. Tissues were stained for H&E and ki67 (Roche) using a Ventana Autostainer. Images were captured using a Zeiss Axiovert inverted microscope.

Lyn [11] = target: T3, Lyn; conditions: cited from earlier work
Target sequence in this assay (P07948 whole entry, species assumed): as the sequence (P07948 whole entry) above

Fyn [12] = target: T2, Fyn; conditions: cited from earlier work
Target sequence in this assay (P06241 whole entry, species assumed): as the sequence (P06241 whole entry) above

U87 glioma cells = U87 glioma cells cultured on tenascin and vitronectin; cited from earlier work
glioma xenografts = conditions: in vivo; cited from earlier work
[13] = continuous infusion in the lateral ventricle for 4 weeks, n=5

T1 sequence (P06239 whole entry): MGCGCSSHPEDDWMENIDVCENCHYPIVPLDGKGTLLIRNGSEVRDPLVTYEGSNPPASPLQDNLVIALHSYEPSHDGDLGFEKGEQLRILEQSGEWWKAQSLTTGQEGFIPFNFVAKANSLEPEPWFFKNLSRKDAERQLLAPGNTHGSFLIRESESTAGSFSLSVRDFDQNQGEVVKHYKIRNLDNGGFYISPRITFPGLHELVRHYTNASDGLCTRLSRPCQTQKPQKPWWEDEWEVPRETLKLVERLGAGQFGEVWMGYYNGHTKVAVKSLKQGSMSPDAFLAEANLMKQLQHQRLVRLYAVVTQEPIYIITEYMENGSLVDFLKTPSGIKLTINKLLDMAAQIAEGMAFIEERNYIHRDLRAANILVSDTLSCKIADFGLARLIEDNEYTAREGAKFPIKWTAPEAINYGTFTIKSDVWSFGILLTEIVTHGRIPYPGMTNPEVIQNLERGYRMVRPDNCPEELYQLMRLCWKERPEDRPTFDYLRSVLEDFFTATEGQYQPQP

body condition score ([10]; all treated animals, 4 weeks): excellent
Structure (SMILES): COc1cc(-c2nn([C@H]3CC[C@H](N4CCN(C(C)=O)CC4)CC3)c3ncnc(N)c23)ccc1NC(=O)c1cc2ccccc2n1C [Lck-I, A770041]
phosphorylation level of Lck, phospho(Y394)-Lck (phospho(Y394)-Lck): significantly reduced; also recorded: significant reduction | phosphorylation level of paxillin, phospho(Y118)-paxillin (phospho(Y118)-paxillin [1]): significantly reduced; also recorded: significant reduction | phosphorylation level of CrkII, phospho(Y221)-CrkII (phospho(Y221)-CrkII): significantly reduced; also recorded: significant reduction | phosphorylation state of Fyn (Fyn [2]): does not affect; also recorded: no effect | phosphorylation state of Lyn (Lyn [3]): does not affect; also recorded: no effect | phospho-paxillin(Y118) staining at focal adhesions (phospho(Y118)-paxillin [4]): reduced; also recorded: almost complete absence | number of pseudopodia (lamellipodia) per cell (human GSCs [5]): significantly reduced; also recorded: significantly lower | migration along parallel axonal bundles (finger-like projections) (human GSCs [6]): complete inhibition of migration; also recorded: complete ablation of the finger-like projections | total area of migration (surface area covered by migrating glioma cells) (human GSCs [7]; 500 nM): significant reduction | integration of tumor cells within the axonal network (human GSCs [7]; n=6): almost complete lack of integration; also recorded: limited integration and expansion | migration of individual glioma cells (GFAP+/Ki67+ migrating tumor cells) (human GSCs [7]; versus control): inhibition of migration; also recorded: significant decrease | human GSC migration (surface area by electrical impedance) (human GSCs [8]): significant reduction | cell spreading (cell processes) after addition (human GSCs [8]; fibronectin-coated plate): immediate retraction of cell processes | invasion (depth/total area of invasion within scaffold, z-stack confocal) (human GSCs [9]): significant inhibition; also recorded: significant reduction | side effects of local administration ([10]; continuous infusion in the lateral ventricle for 4 weeks): no apparent side effects | invasion/migration of human glioma cells within the brain parenchyma [10, 13]: minimal invasion/integration; also recorded: significant inhibition of tumor migration and invasion; also recorded: minimal invasion and migration | tissue necrosis [10, 13]: absence of tissue necrosis; also recorded: lack of focal necrosis | tumor formation ([10]; continuous infusion in the lateral ventricle for 4 weeks, versus PBS/DMSO, n=5): complete lack of solid tumor formation; also recorded: significant inhibition of tumor formation | specificity for Lck over Lyn (Lyn [11]): 8 fold | specificity for Lck over Fyn (Fyn [12]): 300 fold

Structure (SMILES): CC(C)[C@H]1C(=O)N[C@@H](CCCN=C(N)N)C(=O)NCC(=O)N[C@@H](CC(=O)O)C(=O)N[C@H](Cc2ccccc2)C(=O)N1C [EMD121974, Cilengitide]
apoptosis (U87 glioma cells): induces apoptosis | effect on glioma xenografts (glioma xenografts): significant regression
